Test results from patent US10526343B2, “Heterocyclic systems and pharmaceutical applications thereof” (University of Sharjah, priority 2018, dated 2020).

How the values were obtained:
Assay type in all cases: cell-based
[1] = system: MRSA-3 (clinical isolate, methicillin-resistant Staphylococcus aureus); test: MIC by broth microdilution
Experimental: (§1) Bacteria of the genus Staphylococcus were selected for MIC investigation due to its clinical importance.
(§2) A broth microdilution method was used to measure MIC according to the Clinical and Laboratory Standards Institute guidelines. Two-fold serial dilutions of the test compound (8 concentrations ranged between 100-0.78 μg/mL) were tested. […] In each experiment, solvent (DMSO) was used as a negative control, un-treated control (composing of bacteria in Mueller-Hinton broth) was used as a growth control, blank (culture media alone) was used as sterility control. The 96-well microplate with the test compounds was incubated for 20 hours at 37° C. Turbidity in wells indicated bacterial growth. […] For the definite determination of MIC, CellTiter-Blue® Cell Viability Assay (Promega, USA) was used (as above). The MIC was defined as the lowest compound concentration that prevented the color change of the Cell Viability solution (absence of bacterial growth; thus, suspension remained blue in color). For the definite determination of MIC, CellTiter-Blue® Cell Viability Assay (Promega, USA) was used (as above). To each well of the 96-well microplate, 20 μL of the Cell Viability Assay solution was added to the overnight (20 hours culture) and incubated at 37° C. for 4 hours. After the end of the incubation, pink and blue colors were used to differentiate viable from dead bacterial suspensions, respectively. The MIC was defined as the lowest compound concentration that prevented the color change.

[2] = system: MRSA-1 (clinical isolate, methicillin-resistant Staphylococcus aureus); test: MIC by broth microdilution; conditions: for MIC: Staphylococcus aureus, MRSA, clinical isolate
Experimental: as §1, §2

[3] = system: MRSA-2 (clinical isolate, methicillin-resistant Staphylococcus aureus); test: MIC by broth microdilution
Experimental: as §1, §2

[4] = system: UDH-6 (environmental isolate, S. haemolyticus); test: MIC by broth microdilution; conditions: for MIC: Staphylococcus haemolyticus, environmental isolate
Experimental: (§3) Bacteria of the genus Staphylococcus were selected for MIC investigation due to its clinical importance. Compounds showing activity against S. aureus (ATCC 25923) were tested against 10 multidrug-resistant strains of Staphylococcus species, including: clinical isolates methicillin-resistant Staphylococcus aureus (MRSA) strains MRSA-1, MRSA-2, and MRSA-3, and environmental isolates S. saprophyticus (strains UDH-1, UDH-2, UDH-3 and UDH-4), S. haemolyticus (strains UDH-6 and UDH-7), and S. epidermidis strain UDH-5.
(§4) All these strains were resistant to at least three antibiotics from different classes, as confirmed by a disk diffusion assay.
(§5) A broth microdilution method was used to measure MIC according to the Clinical and Laboratory Standards Institute guidelines. Two-fold serial dilutions of the test compound (8 concentrations ranged between 100-0.78 μg/mL) were tested. Two reference antibiotics were used as quality controls (ciprofloxacin and amikacin). In each experiment, solvent (DMSO) was used as a negative control, un-treated control (composing of bacteria in Mueller-Hinton broth) was used as a growth control, blank (culture media alone) was used as sterility control. The 96-well microplate with the test compounds was incubated for 20 hours at 37° C. Turbidity in wells indicated bacterial growth. […] For the definite determination of MIC, CellTiter-Blue® Cell Viability Assay (Promega, USA) was used (as above). The MIC was defined as the lowest compound concentration that prevented the color change of the Cell Viability solution (absence of bacterial growth; thus, suspension remained blue in color). For the definite determination of MIC, CellTiter-Blue® Cell Viability Assay (Promega, USA) was used (as above). To each well of the 96-well microplate, 20 μL of the Cell Viability Assay solution was added to the overnight (20 hours culture) and incubated at 37° C. for 4 hours. After the end of the incubation, pink and blue colors were used to differentiate viable from dead bacterial suspensions, respectively. The MIC was defined as the lowest compound concentration that prevented the color change.

[5] = system: UDH-2 (environmental isolate, S. saprophyticus); test: MIC by broth microdilution; conditions: Staphylococcus saprophyticus
Experimental: as §3, §4, §5

[6] = system: UDH-3 (environmental isolate, S. saprophyticus); test: MIC by broth microdilution; conditions: for MIC: Staphylococcus saprophyticus, environmental isolate; for times lower than MIC of ciprofloxacin: UDH-3
Experimental: as §3, §4, §5

[7] = system: UDH-4 (environmental isolate, S. saprophyticus); test: MIC by broth microdilution; conditions: Staphylococcus saprophyticus
Experimental: as §3, §4, §5

[8] = system: UDH-5 (environmental isolate, S. epidermidis); test: MIC by broth microdilution; conditions: Staphylococcus epidermidis
Experimental: as §3, §4, §5

[9] = system: UDH-7 (environmental isolate, S. haemolyticus); test: MIC by broth microdilution; conditions: for MIC: Staphylococcus haemolyticus, environmental isolate
Experimental: as §3, §4, §5

[10] = system: UDH-1 (environmental isolate, S. saprophyticus); test: MIC by broth microdilution; conditions: for MIC: Staphylococcus saprophyticus, environmental isolate; for times lower than MIC of ciprofloxacin: UDH-1
Experimental: as §3, §4, §5

S. aureus (ATCC 25923) = test: MIC by broth microdilution; conditions: Staphylococcus aureus, ATCC25923
Experimental: as §3, §5

[11] = system: Pseudomonas aeruginosa (ATCC 27853); test: Cell viability assay (resazurin) screening for antibacterial activity; parameters: key: Positive: A positive result indicates antibacterial activity expressed as growth inhibition; Negative: a negative result indicates no antibacterial activity expressed as bacterial growth at the tested concentration; conditions: single high concentration of 1 mg/mL
[12] = system: Enterococcus faecalis (ATCC 29212); test: as above; parameters: key: Positive: A positive result indicates antibacterial activity expressed as growth inhibition; Negative: a negative result indicates no antibacterial activity expressed as bacterial growth at the tested concentration; conditions: single high concentration of 1 mg/mL
[13] = system: Escherichia coli (ATCC 25922); test: as above; parameters: key: Positive: A positive result indicates antibacterial activity expressed as growth inhibition; Negative: a negative result indicates no antibacterial activity expressed as bacterial growth at the tested concentration; conditions: single high concentration of 1 mg/mL
[14] = system: Staphylococcus aureus (ATCC 25923); test: as above; parameters: key: Positive: A positive result indicates antibacterial activity expressed as growth inhibition; Negative: a negative result indicates no antibacterial activity expressed as bacterial growth at the tested concentration; conditions: single high concentration of 1 mg/mL
[15] = system: Bacillus subtilis (environmental isolate); test: as above; parameters: key: Positive: A positive result indicates antibacterial activity expressed as growth inhibition; Negative: a negative result indicates no antibacterial activity expressed as bacterial growth at the tested concentration; conditions: single high concentration of 1 mg/mL

MIC [1] [µg/mL] | MIC [2] [µg/mL] | MIC [3] [µg/mL] | MIC [5] [µg/mL] | MIC [6] [µg/mL] | times lower than MIC of ciprofloxacin [6] | MIC [7] [µg/mL] | MIC [8] [µg/mL] | MIC [10] [µg/mL] | times lower than MIC of ciprofloxacin [10] | MIC (S. aureus (ATCC 25923)) [µg/mL] | Compound | MIC [4] [µg/mL] | MIC [9] [µg/mL] | antibacterial activity, Pseudomonas aeruginosa [11] | antibacterial activity, Enterococcus faecalis [12] | antibacterial activity, Escherichia coli [13] | antibacterial activity, Staphylococcus aureus [14] | antibacterial activity, Bacillus subtilis [15] | further results
3.12 | 3.12 | 3.12 | 6.25 | 3.12 | approximately 20 times | 6.25 | 1.56 | 6.25 | approximately 10 times | 3.12 | COC(=O)CC1COc2c(cc3c4c2CCCN4CCC3)-c2c(NC(C)(C)C)n3c(-c4cccc5c4OCO5)c(C)sc3[n+]21 (stereo not drawn) [Compound 1u] | 6.25 | 6.25 | Negative | Positive | Negative | Positive | Positive | times lower than the MIC of ciprofloxacin ([2]; MRSA-1): approximately 10 times; times lower than MIC of ciprofloxacin ([4]; UDH-6): approximately 10 times; times lower than MIC of ciprofloxacin ([9]; UDH-7): approximately 10 times
12.5 | 12.5 | 12.5 | 25 | 12.5 | – | 12.5 | 6.25 | 12.5 | – | 6.25 | COC(=O)CC1COc2c(cc3c4c2CCCN4CCC3)-c2c(NC(C)(C)C)n3c(-c4ccc(NC(C)=O)cc4)csc3[n+]21 (stereo not drawn) [Compound 1w] | 50 | 50 | Negative | Positive | Negative | Positive | Positive | –
12.5 | 12.5 | 12.5 | 12.5 | 12.5 | – | 12.5 | 6.25 | 12.5 | – | 6.25 | COC(=O)CC1COc2c(cc3c4c2CCCN4CCC3)-c2c(NC(C)(C)C)n3c(-c4ccc(F)cc4)c(C)sc3[n+]21 (stereo not drawn) [Compound 1n] | 25 | 25 | Negative | Positive | Negative | Positive | Positive | –
6.25 | 6.25 | 6.25 | 25 | 6.25 | – | 6.25 | 1.56 | 12.5 | – | 3.12 | COC(=O)CC1COc2c(cc3c4c2CCCN4CCC3)-c2c(NC(C)(C)C)n3c(-c4cccc5c4OCCO5)csc3[n+]21 (stereo not drawn) [Compound 1p] | 12.5 | 12.5 | Negative | Positive | Negative | Positive | Positive | –
3.12 | 6.25 | 6.25 | 6.25 | 3.12 | approximately 20 times | 6.25 | 1.56 | 6.25 | approximately 10 times | 6.25 | CCN(CC)c1ccc2c(c1)OCC(CC(=O)OC)[n+]1c-2c(NC(C)(C)C)n2c(-c3ccc(OC)cc3)c(-c3ccc(OC)cc3)sc21 (stereo not drawn) [Compound 1h] | 6.25 | 12.5 | Negative | Positive | Negative | Positive | Positive | –
12.5 | 12.5 | 12.5 | 25 | 12.5 | – | 25 | 6.25 | 12.5 | – | 12.5 | CCOC(=O)c1sc2n(c(NC(C)(C)C)c3[n+]2C(CC(=O)OC)COc2c-3cc3c4c2CCCN4CCC3)c1-c1ccccc1 (stereo not drawn) [Compound 1r] | 50 | 50 | Negative | Positive | Negative | Positive | Positive | –
3.12 | 6.25 | 3.12 | 6.25 | 6.25 | – | 6.25 | 3.12 | 6.25 | approximately 10 times | 3.12 | COC(=O)CC1COc2c(cc3c4c2CCCN4CCC3)-c2c(NC(C)(C)C)n3c(-c4cc(OC)ccc4OC)csc3[n+]21 (stereo not drawn) [Compound 1t] | 12.5 | 12.5 | Negative | Positive | Negative | Positive | Positive | –
3.12 | 6.25 | 3.12 | 6.25 | 3.12 | approximately 20 times | 6.25 | 1.56 | 6.25 | approximately 10 times | 6.25 | COC(=O)CC1COc2c(cc3c4c2CCCN4CCC3)-c2c(NC(C)(C)C)n3c(-c4ccccc4)c(-c4ccccc4)sc3[n+]21 (stereo not drawn) [Compound 2a] | 6.25 | 12.5 | Negative | Positive | Negative | positive antibacterial activities | Positive | –
